Legend:
[1] = Positive allosteric modulator activity at cynomolgus monkey M4 receptor expressed in CHO cells co-expressing Gqi5 in presence of EC20 concentration of acetylcholine by calcium mobilization assay; assay type: cell-based; conditions: Macaca fascicularis
[2] = Clearance in Cynomolgous monkey plasma at 0.2 mg/kg,iv by LC-MS/MS analysis; conditions: cynomolgus monkey
Rattus norvegicus = test: Antipsychotic activity in MK-801-induced hyperlocomotion activity in rat assessed as minimum effective dose administered orally preincubated for 30 mins followed by MK-801 addition and measured after 60 mins by open field test; assay type: functional; conditions: 1.5 h, route po, time 90 min, read-out: MED
CHO = test: Positive allosteric modulator activity at cynomolgus monkey M4 receptor expressed in CHO cells co-expressing Gqi5 assessed as maximal response to ACh by calcium mobilization assay relative to contol; assay type: cell-based; conditions: Macaca fascicularis, filed as positive allosteric modulator

COc1ccc(CNC(=O)c2sc3nnc(C)c(C)c3c2N)cc1F
EC50 [1]: 102 nM
clearance [2]: 25 mL/min/kg
minimal effective dose (Rattus norvegicus): 30 mg/kg
Activity (CHO): 74%

— ChEMBL document CHEMBL5252536, “Discovery of VU0467485/AZ13713945: An M4 PAM Evaluated as a Preclinical Candidate for the Treatment of Schizophrenia” (ACS Med Chem Lett, 2017)
